According to patent US20220211678A1, “USES OF (+)-A-DIHYDROTETRABENAZINE IN METHODS OF TREATING MOVEMENT DISORDER” (ADEPTIO PHARMACEUTICALS LIMITED, priority 2017, published 2022):

Legend:
[1] = Plasma levels of (+)-α-dihydrotetrabenazine up to 3 hours after oral dosing of human volunteers (Example 1A); assay type: in vivo; conditions: 7.5 mg oral, 0.5 h
Method: […] […] Blood samples were not taken from the fifth volunteer. At 60 minutes after drug administration, PET scans were initiated and these were stopped at 120 minutes after drug administration. The experiment was carried out at dosages of 7.5 mg, 15 mg and 22.5 mg.

VMAT2 = molecular target: T1, VMAT2 (Homo sapiens, UniProt Q05940); test: % VMAT2 blocking by PET scan 6-7 hours after oral dosing of human volunteers (Example 1B); assay type: in vivo; conditions: for reduction of level of VMAT2 blocking after 6-7 hours compared to 1-2 hours following administration: 7.5 mg
T1 construct: from tissue; host or cells: brain of living human volunteers, measured by PET
T1 sequence (Q05940 whole entry): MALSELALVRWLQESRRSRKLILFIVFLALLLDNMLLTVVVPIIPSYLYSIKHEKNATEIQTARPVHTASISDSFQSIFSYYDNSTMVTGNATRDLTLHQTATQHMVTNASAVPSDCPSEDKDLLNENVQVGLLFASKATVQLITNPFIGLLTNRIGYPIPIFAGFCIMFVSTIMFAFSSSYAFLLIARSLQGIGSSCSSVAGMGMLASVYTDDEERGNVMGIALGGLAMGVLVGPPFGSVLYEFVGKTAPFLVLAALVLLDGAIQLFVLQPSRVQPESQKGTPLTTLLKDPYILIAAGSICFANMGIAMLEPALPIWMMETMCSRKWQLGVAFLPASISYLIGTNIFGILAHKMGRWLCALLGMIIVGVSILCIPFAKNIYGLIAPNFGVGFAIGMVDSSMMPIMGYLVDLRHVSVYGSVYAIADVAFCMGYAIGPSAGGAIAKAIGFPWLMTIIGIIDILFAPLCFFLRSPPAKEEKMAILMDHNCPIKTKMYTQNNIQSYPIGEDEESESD
Excerpt: Complete blocking of VMAT2 is considered undesirable as this can lead to unwanted side effects, such as Parkinsonism. […] The levels of VMAT2 blocking can be determined by competitive binding studies using Positron Emission Tomography (PET). By co-administering a radioactive ligand with the compound of interest at various concentrations, the proportion of binding sites occupied can be determined (see for example, Matthews et al., “Positron emission tomography molecular imaging for drug development”, Br. J. Clin. Pharmacol., 73:2, 175-186). Accordingly, the invention also provides:
Volunteers 1 and 2 were the same as volunteers 1 and 2 in Example 1A described above. […] Blood sample were taken from all volunteers 1 to 3 at 2, 4, 6 and 7 hours after drug administration. In addition, in all volunteers PET scans were initiated at 6 hours after drug administration and these were stopped at 7 hours after drug administration.

[2] = test system: non-amphetamine induced rats; test: Locomotor activity and stereotypic behaviour in non-amphetamine induced rats, open field arena (Example 2, Study 3); assay type: in vivo, rat; conditions: Study 3, non-induced rats; (+)-α-DHTBZ 2.5 mg/kg or 5 mg/kg, risperidone 1 mg/kg
Method: All animal experiments were carried out according to the National Institute of Health (NIH) guidelines for the care and use of laboratory animals, and approved by the National Animal Experiment Board, Finland. Male CD (Charles River Laboratories, Germany) at weight range of 200-250 g (165-200 g upon arrival) were used for the experiments. Animals were housed at a standard temperature (22±1° C.) and in a light-controlled environment (lights on from 7 am to 8 pm) with ad libitum access to food and water.
Locomotor activity of the rats was tested in open field arena. The open field test was performed during the rat light cycle and under a normal lighting evenly distributed to the test chambers. The paths of the rats were recorded by activity monitor (Med. Associates Inc.).
Dosing the vehicle, vehicle-amphetamine, (+)-α-DHTBZ or risperidone was done prior to LMA test. The rats were placed in the centre of the arena, and the path was recorded for 60 minutes.
Animals were grouped as follows: • Group 1: 10 rats treated with Vehicle • Group 2: 10 rats treated with (+)-α-DHTBZ 2.5 mg/kg • Group 3: 10 rats treated with (+)-α-DHTBZ 5 mg/kg • Group 4: 10 rats treated with risperidone 1 mg/kg

COc1cc2c(cc1OC)[C@H]1C[C@@H](O)[C@H](CC(C)C)CN1CC2 [(+)-α-dihydrotetrabenazine, (R,R,R)-3-isobutyl-9,10-dimethyloxy-1,3,4,5,7,11b-hexahydro-2H-pyrido[2,1-a]isoquinolin-2-ol]
plasma concentration of (+)-α-dihydrotetrabenazine ([1]; subject 1 (112 kg)): BLQ | plasma concentration of (+)-α-dihydrotetrabenazine ([1]; subject 6 (68 kg)): BLQ | % VMAT2 blocking (VMAT2; 7.5 mg oral, PET scan 6-7 hours after administration, subject 1 (112 kg)): 38% | % VMAT2 blocking (VMAT2; 7.5 mg oral, PET scan 6-7 hours after administration, subject 2 (76 kg)): 65% | % VMAT2 blocking (VMAT2; 7.5 mg oral, PET scan 6-7 hours after administration, subject 3 (76 kg)): 41% | % VMAT2 blocking (VMAT2; 7.5 mg oral, PET scan 6-7 hours after administration, subject 4 (95 kg)): 34% | % VMAT2 blocking (VMAT2; 7.5 mg oral, PET scan 6-7 hours after administration, subject 5 (99 kg)): 36% | reduction of level of VMAT2 blocking after 6-7 hours compared to 1-2 hours following administration (VMAT2; subject 1): 30% | reduction of level of VMAT2 blocking after 6-7 hours compared to 1-2 hours following administration (VMAT2; subject 2): 11% | % VMAT2 blocking (VMAT2; after 6 hours following administration of 7.5 mg): greater than 30% | total movement compared to rats treated with the vehicle [2]: comparable | total stereotypic behaviour compared to rats treated with the vehicle [2]: comparable
